This is an account of results in patent US20120053185A1, “METHOD TO TREAT MELANOMA IN BRAF INHIBITOR-RESISTANT SUBJECTS” (CollabRx Inc., priority 2010, published 2012).

For one assay, the system named is patient's tumor. As to the kind of experiment: Case report: patient who became resistant to successive therapies (Example 1). As to conditions: single patient. The format is in vivo, human. As to the method:
A person had been on multiple lines of therapy, with a response to each, but then becoming resistant. The treatments were as follows:
In July, ipilimumab (a therapy directed at CTLA-4, an inhibitor of the immune system) was started. Sutent® was then administered in addition to the ipilimumab. […] As the patient, however, could not eat, they discontinued the Sutent® and died a few days after this discontinuation.

The next assay relates to metastatic melanoma. As to conditions: patients with the mutation, cited from earlier work.
The mark [1] stands for this setting: Sutent given in addition to ipilimumab, within a few days.

Regarding `CCCS(=O)(=O)Nc1ccc(F)c(C(=O)c2c[nH]c3ncc(-c4ccc(Cl)cc4)cc23)c1F` [Plexxikon 4032], in the assay on patient's tumor (first scan after treatment started January 2010), the “patient's tumor shrank” value stood at 75%. Besides, in the assay on patient's tumor (second scan April 2010), the “result of second scan” value is “recurrence”. Moreover, the response rate in the assay on metastatic melanoma (one study) is reported as 70%. Further, in the assay on metastatic melanoma, the durability of responses result was “generally does not produce durable responses”.
In the case of `CCN(CC)CCNC(=O)c1c(C)[nH]c(/C=C2\C(=O)Nc3ccc(F)cc32)c1C` [Sutent®, 5-(5-fluoro-2-oxo-1,2-dihydroindo1-3-ylidenemethyl)-2,4-dimethyl-1H-pyrrole-3-carboxylic acid (2-diethylaminoethyl)amide], in the assay with patient's tumor (setting [1]), the abdomen size entry was “abdomen shrank to normal size” and the bowel movements entry was “normal bowel movements resumed”.
